# Measured values from PubChem BioAssay (NCI).
#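 Dose response: 5 concentrations. Exposure: 48 h. Format: 96-well plates. Endpoint: linear interpolation; highest concentration if not reached. The concentration for 50% growth inhibition is given as GI50. TGI marks complete inhibition of growth.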
# What was measured:
# Assay in all cases: growth of human tumour cells (NCI), 48 h
# [1] = system: NCI-H23 lung
# [2] = system: HL-60(TB) leukemia
# [3] = system: SW-620 colon
# [4] = system: MALME-3M melanoma
# [5] = system: NCI-H226 lung
# [6] = system: SN12C renal
# [7] = system: UO-31 renal
# [8] = system: OVCAR-4 ovarian
# [9] = system: EKVX NSCLC
# [10] = system: PC-3 prostate
# [11] = system: 786-0 renal
# [12] = system: MOLT-4 leukemia
# [13] = system: MDA-MB-231 breast
# [14] = system: SF-268 CNS
# [15] = system: HCC-2998 colon
# [16] = system: KM12 colon
# [17] = system: UACC-62 melanoma
# [18] = system: SF-295 CNS
# [19] = system: OVCAR-5 ovarian
# [20] = system: SNB-19 CNS
# [21] = system: MDA-MB-435
# [22] = system: COLO 205 colon
# [23] = system: SK-MEL-5 melanoma
# [24] = system: HS 578T breast
# [25] = system: TK-10 renal
# [26] = system: LOX IMVI melanoma
# [27] = system: HCT-116 colon
# [28] = system: A498 renal
# [29] = system: K-562 leukemia
# [30] = system: RXF 393 renal
# [31] = system: HT29 colon
# [32] = system: HCT-15 colon
# [33] = system: BT-549 breast
# [34] = system: M14 melanoma
# [35] = system: CAKI-1 renal
# [36] = system: SK-MEL-2 melanoma
# [37] = system: ACHN renal
# [38] = system: SK-OV-3 ovarian
# [39] = system: MCF7 breast
# [40] = system: OVCAR-3 ovarian
# [41] = system: NCI/ADR-RES ovarian
# [42] = system: UACC-257 melanoma
# [43] = system: NCI-H522 lung
# [44] = system: HOP-92 NSCLC
# [45] = system: SF-539 CNS
# [46] = system: HOP-62 NSCLC
# [47] = system: SNB-75 CNS
# [48] = system: RPMI-8226 leukemia
# [49] = system: DU-145 prostate
# [50] = system: T-47D breast
# [51] = system: OVCAR-8 ovarian
# [52] = system: SK-MEL-28 melanoma
# [53] = system: NCI-H460 lung
# [54] = system: SR leukemia
# [55] = system: CCRF-CEM leukemia
# [56] = system: IGROV1 ovarian
# [57] = system: A549 NSCLC
# [58] = system: U251 CNS
smiles,measurement,setting,value
Nc1cc2c([nH]c[n+]2CC#CCCl)c(SCC#CCCl)n1,GI50,[1],1.23 µM
same,TGI,[1],2.62 µM
same,GI50,[2],0.388 µM
same,TGI,[2],2.64 µM
same,GI50,[3],1.17 µM
same,TGI,[3],2.7 µM
same,GI50,[4],1.09 µM
same,TGI,[4],3.17 µM
same,GI50,[5],1.22 µM
same,TGI,[5],4.12 µM
same,GI50,[6],1.16 µM
same,TGI,[6],3.42 µM
same,GI50,[7],0.763 µM
same,TGI,[7],2.33 µM
same,GI50,[8],1.57 µM
same,TGI,[8],7.17 µM
same,GI50,[9],1.25 µM
same,TGI,[9],2.76 µM
same,GI50,[10],1.4 µM
same,TGI,[10],4.34 µM
same,GI50,[11],1.27 µM
same,TGI,[11],3.05 µM
same,GI50,[12],1.32 µM
same,TGI,[12],> 100 µM
same,GI50,[13],1.39 µM
same,TGI,[13],3.2 µM
same,GI50,[14],0.552 µM
same,TGI,[14],2.01 µM
same,GI50,[15],1.77 µM
same,TGI,[15],3.17 µM
same,GI50,[16],1.25 µM
same,TGI,[16],2.68 µM
same,GI50,[17],0.455 µM
same,TGI,[17],1.86 µM
same,GI50,[18],1.54 µM
same,TGI,[18],3.08 µM
same,GI50,[19],2.13 µM
same,TGI,[19],3.68 µM
same,GI50,[20],1.4 µM
same,TGI,[20],2.84 µM
same,GI50,[21],1.09 µM
same,TGI,[21],2.63 µM
same,GI50,[22],1.46 µM
same,TGI,[22],2.9 µM
same,GI50,[23],1.19 µM
same,TGI,[23],2.43 µM
same,GI50,[24],1.69 µM
same,TGI,[24],7.47 µM
same,GI50,[25],1.42 µM
same,TGI,[25],3.04 µM
same,GI50,[26],0.363 µM
same,TGI,[26],1.44 µM
same,GI50,[27],0.738 µM
same,TGI,[27],2.35 µM
same,GI50,[28],1.1 µM
same,TGI,[28],2.44 µM
same,GI50,[29],1.97 µM
same,TGI,[29],> 100 µM
same,GI50,[30],1.2 µM
same,TGI,[30],2.56 µM
same,GI50,[31],0.883 µM
same,TGI,[31],2.52 µM
same,GI50,[32],1.22 µM
same,TGI,[32],2.89 µM
same,GI50,[33],1.15 µM
same,TGI,[33],2.42 µM
same,GI50,[34],1.11 µM
same,TGI,[34],2.49 µM
same,GI50,[35],0.331 µM
same,TGI,[35],1.36 µM
same,GI50,[36],1.65 µM
same,TGI,[36],4.47 µM
same,GI50,[37],0.58 µM
same,TGI,[37],2.94 µM
same,GI50,[38],1.37 µM
same,TGI,[38],2.81 µM
same,GI50,[39],0.442 µM
same,TGI,[39],2.18 µM
same,GI50,[40],0.592 µM
same,TGI,[40],1.96 µM
same,GI50,[41],1.71 µM
same,TGI,[41],4.24 µM
same,GI50,[42],0.821 µM
same,TGI,[42],2.74 µM
same,GI50,[43],0.522 µM
same,TGI,[43],2.08 µM
same,GI50,[44],1.84 µM
same,TGI,[44],3.86 µM
same,GI50,[45],1.62 µM
same,TGI,[45],3.24 µM
same,GI50,[46],1.4 µM
same,TGI,[46],2.99 µM
same,GI50,[47],1.14 µM
same,TGI,[47],2.4 µM
same,GI50,[48],1 µM
same,TGI,[48],6.57 µM
same,GI50,[49],1.05 µM
same,TGI,[49],2.34 µM
same,GI50,[50],1.12 µM
same,TGI,[50],2.45 µM
same,GI50,[51],1.62 µM
same,TGI,[51],6.02 µM
same,GI50,[52],1.34 µM
same,TGI,[52],2.75 µM
same,GI50,[53],0.374 µM
same,TGI,[53],1.5 µM
same,GI50,[54],0.336 µM
same,TGI,[54],16.4 µM
same,GI50,[55],0.562 µM
same,TGI,[55],> 100 µM
CC(=O)c1nc2ccccc2n1CCN1CCN(C)CC1,GI50,[1],6.01 µM
same,TGI,[1],> 100 µM
same,GI50,[2],2.62 µM
same,TGI,[2],> 26.2 µM
same,GI50,[3],2.8 µM
same,TGI,[3],> 100 µM
same,GI50,[4],2.38 µM
same,TGI,[4],> 100 µM
same,GI50,[5],31.5 µM
same,TGI,[5],> 100 µM
same,GI50,[6],4.21 µM
same,TGI,[6],> 100 µM
same,GI50,[7],9.35 µM
same,TGI,[7],> 100 µM
same,GI50,[8],15.7 µM
same,TGI,[8],> 100 µM
same,GI50,[10],2.41 µM
same,TGI,[10],> 100 µM
same,GI50,[11],17.6 µM
same,TGI,[11],> 100 µM
same,GI50,[12],8.2 µM
same,TGI,[12],> 100 µM
same,GI50,[56],4.83 µM
same,TGI,[56],> 100 µM
same,GI50,[57],2.63 µM
same,TGI,[57],> 100 µM
same,GI50,[13],2.98 µM
same,TGI,[13],> 95.8 µM
same,GI50,[14],4.63 µM
same,TGI,[14],> 100 µM
same,GI50,[15],3.63 µM
same,TGI,[15],26.9 µM
same,GI50,[16],3.06 µM
same,TGI,[16],> 100 µM
same,GI50,[17],4.11 µM
same,TGI,[17],> 100 µM
same,GI50,[18],2.12 µM
same,TGI,[18],15.4 µM
same,GI50,[19],3.5 µM
same,TGI,[19],> 100 µM
same,GI50,[20],17.3 µM
same,TGI,[20],> 100 µM
same,GI50,[21],0.373 µM
same,TGI,[21],1.69 µM
same,GI50,[22],1.89 µM
same,TGI,[22],6.39 µM
same,GI50,[23],3.13 µM
same,TGI,[23],> 100 µM
same,GI50,[24],2.15 µM
same,TGI,[24],25.9 µM
same,GI50,[25],11.5 µM
same,TGI,[25],84.3 µM
same,GI50,[26],2.6 µM
same,TGI,[26],> 100 µM
same,GI50,[27],1.2 µM
same,TGI,[27],> 100 µM
same,GI50,[28],3.46 µM
same,TGI,[28],> 52.7 µM
same,GI50,[29],3.95 µM
same,TGI,[29],> 100 µM
same,GI50,[30],1.59 µM
same,TGI,[30],18.6 µM
same,GI50,[31],0.639 µM
same,TGI,[31],10.4 µM
same,GI50,[32],25 µM
same,TGI,[32],> 100 µM
same,GI50,[33],6.21 µM
same,TGI,[33],> 100 µM
same,GI50,[34],2.66 µM
same,TGI,[34],> 41.6 µM
same,GI50,[35],34.1 µM
same,TGI,[35],> 100 µM
same,GI50,[36],3.28 µM
same,TGI,[36],47.6 µM
same,GI50,[37],23.4 µM
same,TGI,[37],> 100 µM
same,GI50,[38],3.61 µM
same,TGI,[38],59.5 µM
same,GI50,[39],1.16 µM
same,TGI,[39],> 100 µM
same,GI50,[40],2.6 µM
same,TGI,[40],> 26 µM
same,GI50,[41],61.1 µM
same,TGI,[41],> 100 µM
same,GI50,[42],5.47 µM
same,TGI,[42],> 100 µM
same,GI50,[43],1.8 µM
same,TGI,[43],6.11 µM
same,GI50,[44],0.416 µM
same,GI50,[45],2.28 µM
same,TGI,[45],> 50.4 µM
same,GI50,[46],3.57 µM
same,TGI,[46],> 100 µM
same,GI50,[47],0.0668 µM
same,TGI,[47],1.57 µM
same,GI50,[48],1.9 µM
same,TGI,[48],> 100 µM
same,GI50,[49],2.79 µM
same,TGI,[49],12.3 µM
same,GI50,[50],2.97 µM
same,TGI,[50],> 100 µM
same,GI50,[51],3.76 µM
same,TGI,[51],> 100 µM
same,GI50,[52],7.15 µM
same,TGI,[52],> 100 µM
same,GI50,[53],2.3 µM
same,TGI,[53],> 100 µM
same,GI50,[54],1.32 µM
same,TGI,[54],> 100 µM
same,GI50,[55],3.29 µM
same,TGI,[55],> 100 µM
same,GI50,[58],3.82 µM
same,TGI,[58],> 100 µM
